Results taken from ChEMBL document CHEMBL1201862, “PubChem BioAssay data set” (2004).
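Following 48 hours of exposure in 96-well plates, responses at five concentrations were used to interpolate endpoints linearly. The concentration for 50% growth inhibition is given as GI50.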 The source made the active and inactive calls. Cut-off read from the data, not from the text of the source: active = GI50 up to about 1.1 µM and inactive = higher.

What was measured:
Assay in all cases: growth of human tumour cells (NCI), 48 h
[1] = system: UACC-257
[2] = system: HL-60
[3] = system: MCF7
[4] = system: Malme-3M
[5] = system: OVCAR-5
[6] = system: A498
[7] = system: SF-268
[8] = system: NCI-H226
[9] = system: MDA-MB-435
[10] = system: HOP-62
[11] = system: M14
[12] = system: OVCAR-3
[13] = system: BT-549
[14] = system: SK-OV-3
[15] = system: HCT-116
[16] = system: MDA-MB-231
[17] = system: OVCAR-8
[18] = system: SK-MEL-5
[19] = system: SK-MEL-28
[20] = system: A549

| SMILES | GI50 [1] | GI50 [2] | GI50 [3] | GI50 [4] | GI50 [5] | GI50 [6] | GI50 [7] | GI50 [8] | GI50 [9] | GI50 [10] | GI50 [11] | GI50 [12] | GI50 [13] | GI50 [14] | GI50 [15] | GI50 [16] | GI50 [17] | GI50 [18] | GI50 [19] | GI50 [20] |
| --- | --- | --- | --- | --- | --- | --- | --- | --- | --- | --- | --- | --- | --- | --- | --- | --- | --- | --- | --- | --- |
| CC(Cn1c2c(c3cc(O)ccc31)CCc1ccc(O)cc1-2)N(C)C (stereo unspecified) | 19.9 µM (inactive) | 64.1 µM (inactive) | 19.9 µM (inactive) | 14.5 µM (inactive) | 19.3 µM (inactive) | 26.3 µM (inactive) | 20.7 µM (inactive) | 14.4 µM (inactive) | 17.9 µM (inactive) | 15.6 µM (inactive) | 14.1 µM (inactive) | 15.6 µM (inactive) | 16.3 µM (inactive) | 25.2 µM (inactive) | 19.7 µM (inactive) | 26 µM (inactive) | 17.7 µM (inactive) | – | – | – |
| CC(=O)c1c(SCCN2CCCC2)n(-c2ccccc2)c(=S)n(-c2ccccc2)c1=O | 3.46 µM (inactive) | 3.55 µM (inactive) | 1.33 µM (inactive) | 3.85 µM (inactive) | 33.7 µM (inactive) | 14.3 µM (inactive) | 16.4 µM (inactive) | 20.9 µM (inactive) | 5.9 µM (inactive) | 22.4 µM (inactive) | 2.39 µM (inactive) | 2.5 µM (inactive) | 14.5 µM (inactive) | 45.3 µM (inactive) | 6.73 µM (inactive) | 8.83 µM (inactive) | 9.48 µM (inactive) | 8.55 µM (inactive) | 6.11 µM (inactive) | 5.82 µM (inactive) |
| CCC(C)C1NC(=O)C(NC(=O)c2c3nc4c(C(=O)NC5C(=O)NC(C(C)CC)C(=O)N6CCCC6C(=O)N(C)CC(=O)N(C)C(C(C)C)C(=O)OC5C)ccc(C)c4oc-3c(C)c(=O)c2O)C(C)OC(=O)C(C(C)C)N(C)C(=O)CN(C)C(=O)C2CCCN2C1=O (stereo unspecified) | 3.3 µM (inactive) | 2.81 µM (inactive) | 1.11 µM (active) | 1.98 µM (inactive) | 11.6 µM (inactive) | 2.84 µM (inactive) | 3.77 µM (inactive) | 0.881 µM (active) | 4.92 µM (inactive) | 2.99 µM (inactive) | 4.2 µM (inactive) | 3.24 µM (inactive) | 5.81 µM (inactive) | 11.5 µM (inactive) | 0.55 µM (active) | 1.25 µM (inactive) | 1.6 µM (inactive) | 4.21 µM (inactive) | 5.24 µM (inactive) | 2.47 µM (inactive) |
| CN(N)C(=O)NCCCl | > 100 µM (inactive) | > 100 µM (inactive) | > 100 µM (inactive) | > 100 µM (inactive) | > 100 µM (inactive) | > 100 µM (inactive) | > 100 µM (inactive) | 0.23 µM (active) | > 100 µM (inactive) | > 100 µM (inactive) | > 100 µM (inactive) | > 100 µM (inactive) | > 100 µM (inactive) | > 100 µM (inactive) | > 100 µM (inactive) | 1.3 µM (inactive) | – | > 100 µM (inactive) | > 100 µM (inactive) | > 100 µM (inactive) |
| O=C(c1ccccc1)c1cc(-c2ccccc2)c(-c2ccccc2)[nH]c(=O)c1=O | 41.5 µM (inactive) | 15.7 µM (inactive) | 31.5 µM (inactive) | 49.3 µM (inactive) | 54.2 µM (inactive) | 77.4 µM (inactive) | 50.5 µM (inactive) | 43.4 µM (inactive) | 30.5 µM (inactive) | 59.6 µM (inactive) | 41.2 µM (inactive) | 35.6 µM (inactive) | 22.5 µM (inactive) | > 100 µM (inactive) | 35.2 µM (inactive) | > 100 µM (inactive) | 37.4 µM (inactive) | 31.6 µM (inactive) | 42.2 µM (inactive) | 41.7 µM (inactive) |
| c1csc(-c2ccc(-c3ccc(-c4cccs4)s3)s2)c1 | > 100 µM (inactive) | > 100 µM (inactive) | > 100 µM (inactive) | > 100 µM (inactive) | > 100 µM (inactive) | > 100 µM (inactive) | > 100 µM (inactive) | > 100 µM (inactive) | > 100 µM (inactive) | > 100 µM (inactive) | > 100 µM (inactive) | > 100 µM (inactive) | > 100 µM (inactive) | > 100 µM (inactive) | > 100 µM (inactive) | > 100 µM (inactive) | > 100 µM (inactive) | > 100 µM (inactive) | > 100 µM (inactive) | > 100 µM (inactive) |
| Cc1nc2cc(C(F)(F)F)ccc2[nH]c1=O | > 100 µM (inactive) | > 100 µM (inactive) | > 100 µM (inactive) | > 100 µM (inactive) | > 100 µM (inactive) | > 100 µM (inactive) | > 100 µM (inactive) | > 100 µM (inactive) | > 100 µM (inactive) | > 100 µM (inactive) | > 100 µM (inactive) | > 100 µM (inactive) | > 100 µM (inactive) | > 100 µM (inactive) | > 100 µM (inactive) | > 100 µM (inactive) | > 100 µM (inactive) | > 100 µM (inactive) | > 100 µM (inactive) | > 100 µM (inactive) |
| COC[C@H]1C(=O)NCC(=O)N2N=CCC[C@H]2C(=O)N(O)[C@H](C)C(=O)O[C@@H](C(C)C)[C@H](NC(=O)[C@@](C)(O)[C@]2(O)CC[C@@H](CC(C)C)[C@H](C)O2)C(=O)N2NCCC[C@@H]2C(=O)N1O | 0.0184 µM (active) | 0.0148 µM (active) | 0.0168 µM (active) | 0.0171 µM (active) | 0.0178 µM (active) | 0.0412 µM (active) | 0.0163 µM (active) | 0.0197 µM (active) | 0.0164 µM (active) | 0.0175 µM (active) | 0.0183 µM (active) | 0.0183 µM (active) | 0.0166 µM (active) | 0.0273 µM (active) | 0.0134 µM (active) | 0.0191 µM (active) | 0.0185 µM (active) | 0.0156 µM (active) | 0.0174 µM (active) | 0.019 µM (active) |
| Cc1cc(=O)c2cc(/N=C/c3ccc([N+](=O)[O-])o3)ccc2o1 | 28.1 µM (inactive) | 57.9 µM (inactive) | 24.3 µM (inactive) | 30 µM (inactive) | > 100 µM (inactive) | > 100 µM (inactive) | 88.7 µM (inactive) | > 100 µM (inactive) | 44.9 µM (inactive) | > 100 µM (inactive) | > 100 µM (inactive) | > 100 µM (inactive) | 72.6 µM (inactive) | > 100 µM (inactive) | 32.5 µM (inactive) | > 100 µM (inactive) | – | > 100 µM (inactive) | > 100 µM (inactive) | > 100 µM (inactive) |
| CCCC(=O)Nc1cc([N+](=O)[O-])c([N+](=O)[O-])cc1OC | 18.3 µM (inactive) | 13.1 µM (inactive) | 29.5 µM (inactive) | – | 32.5 µM (inactive) | 15.7 µM (inactive) | 16.3 µM (inactive) | 23.1 µM (inactive) | 18.4 µM (inactive) | 12.6 µM (inactive) | 12.8 µM (inactive) | 14.6 µM (inactive) | 17.3 µM (inactive) | 13.9 µM (inactive) | 17.1 µM (inactive) | 19.1 µM (inactive) | 16.3 µM (inactive) | 16.6 µM (inactive) | 17 µM (inactive) | 13.7 µM (inactive) |
| C=[N+](CNC(=O)CNC(=O)C(Cc1ccc([N+](=O)[O-])cc1)NC(=O)OC(C)(C)C)C(=O)CNC(=O)C(Cc1ccc([N+](=O)[O-])cc1)NC(=O)OC(C)(C)C (stereo unspecified) | – | 13.3 µM (inactive) | 40.8 µM (inactive) | 44.6 µM (inactive) | > 100 µM (inactive) | 30.7 µM (inactive) | 27.8 µM (inactive) | 60.7 µM (inactive) | 26.2 µM (inactive) | > 100 µM (inactive) | 28.1 µM (inactive) | 50.1 µM (inactive) | 28.1 µM (inactive) | > 100 µM (inactive) | 36.2 µM (inactive) | 25.7 µM (inactive) | 52.7 µM (inactive) | 35.6 µM (inactive) | 30.1 µM (inactive) | > 100 µM (inactive) |
| COC(=O)/C=C/CCC#Cc1ccccc1C#CCC/C=C/C(=O)OC | 23.7 µM (inactive) | 2.7 µM (inactive) | 6.41 µM (inactive) | 3.9 µM (inactive) | 23.5 µM (inactive) | 38.5 µM (inactive) | 9.82 µM (inactive) | 13.1 µM (inactive) | 6 µM (inactive) | 24.2 µM (inactive) | 8.97 µM (inactive) | 3.58 µM (inactive) | 7.55 µM (inactive) | 21.7 µM (inactive) | 3.48 µM (inactive) | 20.1 µM (inactive) | 6.46 µM (inactive) | – | 47.5 µM (inactive) | 15.3 µM (inactive) |
| COc1ccc(CC(=O)N2CCC3(C)CC(=O)CC=C23)cc1OC (stereo unspecified) | – | > 100 µM (inactive) | > 100 µM (inactive) | > 100 µM (inactive) | > 100 µM (inactive) | > 100 µM (inactive) | > 100 µM (inactive) | > 100 µM (inactive) | > 100 µM (inactive) | 93.8 µM (inactive) | > 100 µM (inactive) | > 100 µM (inactive) | > 100 µM (inactive) | > 100 µM (inactive) | > 100 µM (inactive) | > 100 µM (inactive) | > 100 µM (inactive) | > 100 µM (inactive) | > 100 µM (inactive) | > 100 µM (inactive) |
